Source: the METLIN SMRT retention time set (Domingo-Almenara et al. 2019)

Test: gradient 5% acetonitrile 3 min, to 50% in 2 min, to 85% in 15 min, held 3 min, 100 µL/min
Conditions: column: Zorbax Extend-C18 2.1 x 50 mm; eluents: water / acetonitrile, 0.1% formic acid
Outline: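 Mixtures of ~100 pure standards were chromatographed on a Zorbax Extend-C18 column (2.1 × 50 mm, 1.8 μm) at 100 μL/min using water and acetonitrile, each with 0.1% formic acid. Detection used a quadrupole time-of-flight mass spectrometer in positive and negative ionization mode, and data collection spanned 3 months. Retention time was obtained from adduct peaks picked computationally and each checked manually.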

RP-LC retention time [s]	SMILES
784	O=c1c(NCC2CCCCC2)nc2ccncc2n1Cc1ccccc1
1070	COc1c(C(=O)NCc2ccc3c(c2)OCO3)sc2cc(Cl)ccc12
790	CCC(=O)N1CCc2cc(N3CC(C(=O)Nc4cc(C)ccc4C)CC3=O)ccc21 (centres undefined)
939	Cc1ccccc1C(=O)Nc1nc(-c2ccc3c(c2)N(C)C(=O)CO3)cs1
676	COc1ccc(CNC(=O)CS(=O)(=O)c2cccs2)cc1
715	Cc1[nH]c(C(=O)N2CCC(CC(=O)NCCCOC(C)C)CC2)c(C)c1C
711	CCNC(=O)C1CCCN(c2nc3ncn(CC(=O)Nc4ccc(C)cc4C)c(=O)c3s2)C1 (centres undefined)
770	O=C(CSCc1ccccc1)NCC1CCN(C(=O)Nc2ccc(F)cc2)CC1
970	CCOC(=O)c1sc(NC(=O)COc2ccc(Cl)cc2)nc1C
778	O=C(Cn1c(=O)c2cc(C3CC3)nn2c2ncccc21)Nc1cccc(F)c1
859	COc1ccc(-n2c(=O)n(C)c(=O)c3cc(C(=O)NCc4ccccc4OC)cnc32)cc1
760	COc1ccc(NC(=O)C2CCN(S(=O)(=O)c3cc(C(=O)N4CCCC4)cs3)CC2)cc1
913	COC(=O)c1cccc(NS(=O)(=O)c2cn(CC(C)C)c3ncccc23)c1
1310	Cc1ccc(OCC(=O)Nc2nc(-c3ccccc3)cs2)c(Br)c1
588	CC(=O)c1ccc(S(=O)(=O)N2CCCC(C)(C(=O)NCc3ccccc3C)C2)cc1 (centres undefined)
678	Cc1ccc(S(=O)(=O)NC2CCS(=O)(=O)C2)cc1[N+](=O)[O-] (centres undefined)
622	Cc1nnc(CNC(=O)CCc2c[nH]c3ccccc23)o1
634	COc1ccc(NC(=O)Cn2nc3n(c2=O)CCCC3)cc1
833	CCOC(=O)c1nc(NCc2cccc(Cl)c2)c2ccccc2n1
831	COc1ccc(S(=O)(=O)N2CCCC(C(=O)Nc3ccc(F)cc3)C2)cc1OC (centres undefined)
895	COc1ccc(Cl)cc1NC(=O)N1CCC(n2cnc3cc(F)ccc3c2=O)CC1
1100	COc1ccc(C)cc1NC(=O)C1CCN(S(C)(=O)=O)c2cc(Cl)ccc2O1 (centres undefined)

RP-LC retention time [s]	SMILES
717	Cn1c(=O)c(=O)n(CC(=O)NCc2cccc(Br)c2)c2cccnc21
796	Cc1ccccc1-c1noc(N2CCC(C(=O)N3CCOCC3)CC2)n1
622	CCOC(=O)c1c(C)c(CCC(=O)NCCN2CCOCC2)c(C)n1C
990	CS(=O)(=O)N1CCC(C(=O)Nc2ccc(Br)cc2F)Oc2ccccc21 (centres undefined)
845	COC(=O)c1cc(S(=O)(=O)N2CCCC2C(=O)NCc2ccccc2Cl)cn1C (centres undefined)
637	C=CCN1CCN(c2nc3cc(C(=O)OC)ccc3c(=O)n2-c2ccccc2)CC1
616	Cc1ccc(F)cc1S(=O)(=O)N1CCN(c2cnn3c(C)nnc3c2)CC1
1020	Cc1sc(-c2nnc(C3CCC3)o2)cc1NC(=O)Cc1ccc(F)cc1
768	CCOC(=O)c1cccc(NC(=O)C2CCN(S(=O)(=O)c3ccc4[nH]c(=O)ccc4c3)CC2)c1
834	Cc1ccccc1-c1noc(Cn2ccn(-c3ccccc3)c(=O)c2=O)n1
614	Cc1nnsc1C(=O)N1CCC(C(=O)NCC(F)(F)F)CC1
792	COc1cccc(NC(=O)c2cccn2Cc2noc(C)n2)c1
916	Cc1ccc(N2CCN(C(=O)c3cn(-c4cc(N5CCSCC5)ncn4)cn3)CC2)cc1
1080	Cc1ccc(NC(=O)Nc2nccn(-c3ccc(Br)cc3)c2=O)cc1F
604	Cc1ccc(CN2C[C@@H]3C(=O)N(C)C(=O)[C@@H]3C2)cc1C
982	CC1CCN(C(=O)c2ccc3ccnc(N4CCN(c5ccc(Cl)cc5)CC4)c3c2)CC1
899	Cn1nc(-c2nnc(-c3ccccc3Cl)o2)c2c1CCN(C(=O)NC1CCCCC1)C2
698	Cc1noc(C2CN(C(=O)NCc3ccc(F)cc3)CC23CCOCC3)n1 (centres undefined)
887	Cc1ccc(-c2cn3c(CC(=O)NCCCc4ccccc4)csc3n2)cc1C
686	CCCCN1CCN(c2ccc(-c3csc(S(=O)(=O)N4CCCCC4)c3)nn2)CC1
738	O=C(Nc1ccc(F)cc1)N1CCCCCC1
730	Cc1ccccc1CC(=O)NC(C(=O)Nc1nc2ccccc2[nH]1)C(C)C (centres undefined)

RP-LC retention time [s]	SMILES
782	Cc1cc(=O)oc2cc(OS(C)(=O)=O)ccc12
685	Cn1ccc2cc(S(=O)(=O)N3CCCC(C(=O)NCCCN4CCc5ccccc5C4)C3)ccc21 (centres undefined)
911	Cc1cc(N2CCCC2)nc(N2CCN(S(=O)(=O)c3ccc(-c4ccccc4)cc3)CC2)n1
796	CCC(C)NC(=O)C1CCN(Cc2cc3ccccc3n2Cc2cccc(Cl)c2)CC1 (centres undefined)
866	CCc1ccc(CNC(=O)Cn2cc(-c3nnco3)c3ccccc32)cc1
930	Cc1nnc2ccc(S(=O)(=O)N(Cc3ccccc3)c3ccc(Cl)cc3)cn12
561	O=C(NCc1ccc(N2CCCCC2)cc1)c1ccc2ncnc(N3CCCC3)c2c1
788	CCn1ncc(NC(=O)c2cccc(OC)c2)c(N2CCOCC2)c1=O
871	CSc1ncccc1C(=O)N1CCc2cc(-c3ccno3)ccc21
707	CC1CCN(S(=O)(=O)c2nn(C)cc2C(=O)O)CC1
874	CC1=C(c2ccc(C)c(C)c2)S(=O)(=O)N=C1N1CCCN(C(=O)c2cccs2)CC1
836	COc1ccc(-c2nc(N3CCCC(C)C3)c3ccccc3n2)cc1 (centres undefined)
769	COc1cccc(N2CCN(c3cc(SCC(=O)NCC4CCCO4)ncn3)CC2)c1 (centres undefined)
918	COc1cccc(Cn2nc3c(S(=O)(=O)N4CCCCCC4)cccn3c2=O)c1
884	C[C@H]1CN(S(=O)(=O)c2ccccc2F)C[C@@H]1c1nc(-c2ccncc2)no1
1030	O=C(C1CCN(S(=O)(=O)c2ccc(-c3noc(C4CCCC4)n3)cc2)CC1)N1CCCC1
617	CCCNC(=O)C1CCCN(c2ccc(SCC(=O)Nc3ccccc3Cl)nn2)C1 (centres undefined)
624	CCn1c(C(=O)NCCCN2CCOCC2)c(N2CCCC2=O)c2cc(F)ccc21
1060	O=C(c1cn(-c2cc(N3CCCCC3)ncn2)cn1)N1CC=C(c2ccccc2)CC1
1040	CCOC(=O)c1ccc(NC(=O)c2cn3c4c(ccc(Cl)c4c2=O)OCC3)cc1
591	O=C(Nc1nc2ccccc2[nH]1)C1CCN(c2ccc(-c3cccs3)nn2)CC1
966	CCC1CN(C(=O)Nc2ccc3c(c2)OCCO3)c2ccccc2O1 (centres undefined)

RP-LC retention time [s]	SMILES
644	CCOC(=O)c1c(S(=O)(=O)N2CCC(C(=O)Nc3cc(C)ccn3)CC2)c(C)n(C)c1C
697	Cc1ccc(NC(=O)Nc2ccccc2)c(=O)n1CC(=O)NCC1CCCO1 (centres undefined)
582	O=C(Cn1nc(Cc2ccncc2)c2ccccc2c1=O)N1CCN(C(=O)c2ccco2)CC1
1020	CCSc1nc2ccc(NS(=O)(=O)c3ccc(F)cc3F)cc2s1
606	CCNC(=O)N1CCc2nc(OCC)ccc2C1
1230	Cc1nc(-c2cccc(-c3noc(-c4cncc(Br)c4)n3)c2)cs1
553	CN(C)C[C@@H]1CN(C)C[C@H]1NC(=O)c1ccc(Br)cc1
641	O=C(Nc1nncs1)C1CCN(C(=O)c2ccccc2F)CC1
546	O=C(c1ccc2cc[nH]c2c1)N1CCC(c2nc(C3CC3)n[nH]2)CC1
913	CCOc1ccc(NC(=O)N2CCc3cn(C)c4cccc(c34)C2)cc1
1070	CCN1C(=O)C2(CCN(S(=O)(=O)c3cccc(C)c3)CC2)c2ccccc21
985	CCc1ccccc1NC(=O)C1CCN(S(=O)(=O)c2c(C)nn(-c3ccccc3)c2C)CC1
827	CC(Oc1cccc(Cl)c1)c1nc(-c2ccc3ncn(C)c3c2)no1 (centres undefined)
832	COc1ccc(NC(=O)Cn2nc3c(Oc4ccc(Cl)cc4)nccn3c2=O)cc1
655	O=C(c1cccc(Nc2nc3ccccc3n3nnnc23)c1)N1CCN(c2ccccn2)CC1
570	CCC(=O)NCc1nc2c(n1C)CN(S(=O)(=O)c1cccc(Cl)c1)CC2
679	Cc1cc(-c2ccc(S(=O)(=O)N3CCC(C(=O)N4CCCC4)CC3)o2)n[nH]1
586	O=C1CCCN1CCCN(CC(=O)N1CCNCC1)C(=O)c1ccc(Cl)cc1
633	Cc1cnc(-c2cccnc2)n1C1CCN(S(=O)(=O)c2ccc3c(c2)OCCO3)C1 (centres undefined)
850	COc1ccc2[nH]cc(CCNC(=O)CCC(=O)N3Cc4cccn4-c4ccccc43)c2c1
736	COC(=O)C1=CN(C2CC2)c2cc(N3CCOCC3)c(F)cc2S1(=O)=O
862	CCCn1c(=O)c2cc(C(=O)N3CCN(c4ccc(OC)cc4)CC3)nn2c2ccccc21

SMILES	RP-LC retention time [s]
O=c1cccc2n1CC1CC2CN(Cc2nnc(-c3cccc(Br)c3)o2)C1 (centres undefined)	803
